This is an account of results in PubChem BioAssay (NCI).

Test systems include MALME-3M melanoma; NCI/ADR-RES ovarian; HOP-62 NSCLC; SF-295 CNS; OVCAR-8 ovarian; CCRF-CEM leukemia; NCI-H226 lung; NCI-H522 lung; RPMI-8226 leukemia; NCI-H23 lung.
Assay in all cases: DTP human tumour cell line panel, 48 h

Molecules are shown by their SMILES.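 Tested at 5 concentrations; 48 h exposure; 96-well plates; endpoints linearly interpolated, else capped at highest concentration. The concentration for 50% growth inhibition is given as GI50. The concentration for full growth arrest is given as TGI.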

For the compound `CC/C=C\C[C@H](O)C/C=C1/C(=O)C=C[C@@H]1C/C=C\CCCC(=O)N(C)C`, the GI50 was 3.05 µM with MALME-3M melanoma; 1.08 µM in the assay on NCI/ADR-RES ovarian; 1.99 µM in the assay with HOP-62 NSCLC; 2.97 µM in the assay with SF-295 CNS; 1.54 µM in the assay on OVCAR-8 ovarian; 0.817 µM in the assay on CCRF-CEM leukemia. For the same compound, the GI50 was 2.57 µM with NCI-H226 lung, 1.33 µM in the assay on NCI-H522 lung, 0.671 µM in the assay on RPMI-8226 leukemia and 2 µM with NCI-H23 lung. Besides, the TGI in the assay with MALME-3M melanoma stood at 8.81 µM; in the assay with NCI/ADR-RES ovarian it was 7.9 µM; with HOP-62 NSCLC, 8.35 µM; in the assay with SF-295 CNS it was 11.1 µM; with OVCAR-8 ovarian, 11.4 µM; with CCRF-CEM leukemia it was 5.61 µM. Further, the TGI was determined as 7.84 µM in the assay on NCI-H226 lung, 2.98 µM with NCI-H522 lung, 6.01 µM in the assay on RPMI-8226 leukemia and 5.74 µM in the assay on NCI-H23 lung.

One may read the GI50 as the concentration that inhibits growth by half. The TGI is the concentration giving total growth inhibition.
